Test results reported in patent publication US20230183239A1, “ECTONUCLEOTIDE PYROPHOSPHATASE-PHOSPHODIESTERASE 1 (ENPP-1) INHIBITORS AND USES THEREOF” (AbbVie Inc., priority 2017, published 2023).

What was measured:
Format in all cases: biochemical
ENPP1 [1] = biological target: T1, ENPP1 (Homo sapiens, UniProt P22413); experiment: Indirect quantitation of 2',3'-cGAMP hydrolysis (AMP-Glo Assay kit); conditions: cGAMP substrate; Ki from IC50 by Cheng-Prusoff; read-out: ENPP1 Inhibition -cGAMP: Ki
T1 sequence (P22413 1-925): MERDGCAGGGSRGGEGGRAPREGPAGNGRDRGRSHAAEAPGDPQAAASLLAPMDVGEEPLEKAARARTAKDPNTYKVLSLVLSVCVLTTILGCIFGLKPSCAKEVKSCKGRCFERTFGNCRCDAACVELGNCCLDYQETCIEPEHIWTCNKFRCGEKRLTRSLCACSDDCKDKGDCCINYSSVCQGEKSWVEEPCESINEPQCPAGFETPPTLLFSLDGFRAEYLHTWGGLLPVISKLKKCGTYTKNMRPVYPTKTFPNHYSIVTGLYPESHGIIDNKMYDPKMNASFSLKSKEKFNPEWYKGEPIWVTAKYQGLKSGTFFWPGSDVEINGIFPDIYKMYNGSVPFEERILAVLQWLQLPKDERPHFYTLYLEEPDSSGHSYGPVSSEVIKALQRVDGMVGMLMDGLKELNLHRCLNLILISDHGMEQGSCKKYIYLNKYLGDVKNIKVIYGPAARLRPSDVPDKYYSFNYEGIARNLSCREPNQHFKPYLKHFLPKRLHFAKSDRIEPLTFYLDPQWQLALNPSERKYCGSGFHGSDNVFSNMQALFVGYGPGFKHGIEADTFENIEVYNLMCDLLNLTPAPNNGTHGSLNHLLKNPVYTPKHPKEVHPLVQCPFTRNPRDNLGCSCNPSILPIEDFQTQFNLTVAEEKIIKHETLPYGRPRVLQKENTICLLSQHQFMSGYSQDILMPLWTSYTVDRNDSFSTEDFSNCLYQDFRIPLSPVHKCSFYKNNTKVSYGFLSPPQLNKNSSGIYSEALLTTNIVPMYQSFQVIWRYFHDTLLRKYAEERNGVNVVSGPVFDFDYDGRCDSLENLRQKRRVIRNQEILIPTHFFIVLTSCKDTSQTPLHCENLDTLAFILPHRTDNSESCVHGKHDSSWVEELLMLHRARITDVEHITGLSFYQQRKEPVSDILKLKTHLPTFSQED

ENPP1 [2] = biological target: T1, ENPP1; experiment: Substrate selectivity ratio, inhibition of cGAMP hydrolysis versus ATP hydrolysis; conditions: ratio Ki AMP-pNP / Ki cGAMP
Protocol: The selectivity ratios for inhibition of cGAMP hydrolysis versus ATP hydrolysis were then calculated as follows: […]

ENPP1 [3] = biological target: T1, ENPP1; experiment: ENPP1 enzyme assay with AMP-pNP substrate (hydrolysis of ATP analog); conditions: AMP-pNP substrate (ATP analog); Ki from IC50 by Cheng-Prusoff; read-out: ENPP1 Inhibition _AMP-pNP: Ki
Protocol: The ENPP1 assay with AMP-pNP substrate is conducted in a buffer containing 50 mM Tris-HCl (pH 8.5)/ 250 mM NaCl/0.5 mM CaCl2/1 µM ZnCl2/0.1% DMSO. Inhibitors are added at final concentrations ranging between 10 µM and 30 pM depending on the compound. Duplicate wells are run at each inhibitor concentration. The final assay volume is 40 µL and human recombinant ENPP1 is present at 60 ng/well. The assay is initiated by the addition of substrate (300 µM AMP-pNP final concentration), and incubated for 20 minutes at 37° C. […] Each assay plate also includes wells with no enzyme added (MIN OD) and wells with no inhibitor added (MAX OD). The percent inhibition of ENPP1 for each sample is then calculated as: […]
IC50 values of compounds were calculated by entering the percent inhibition values into a sigmoidal variable slope nonlinear regression model in GraphPad Prism® software.

| Structure (SMILES) | Ki (ENPP1 [1]) | Substrate Selectivity: Ki_AMP-pNP/Ki_cGAMP (ENPP1 [2]) | Ki (ENPP1 [3]) |
| --- | --- | --- | --- |
| COc1cc2nccc(N3CCc4cc(NS(N)(=O)=O)ccc43)c2cc1F [Example 72, N-(1-(6-fluoro-7-methoxyquinolin-4-yl)indolin-5-yl)sulfamide] | < 0.1 µM | 11.9 | < 0.1 µM |
| COc1cc2nccc(Oc3c(F)cc(NS(N)(=O)=O)cc3F)c2cc1OC [Example 197, N-(4-((6,7-dimethoxyquinolin-4-yl)oxy)-3,5-difluorophenyl)sulfamide] | < 0.1 µM | >49.7 | > 1 µM |
| COc1ccc2c(N3CCC4(CC3)CCN(S(N)(=O)=O)C4)c(C#N)cnc2c1 [Example 248, 8-(3-cyano-7-methoxyquinolin-4-yl)-2,8-diazaspiro[4.5]decane-2-sulfonamide] | < 0.1 µM | 48.6 | < 0.1 µM |
| COc1cc2ncnc(N3CCC(CCS(N)(=O)=O)CC3)c2cc1OC [Example 164, 2-(1-(6,7-dimethoxyquinazolin-4-yl)piperidin-4-yl)ethane-1-sulfonamide] | < 0.1 µM | 14.8 | < 0.1 µM |
| COc1ccc2c(NCc3ccc(S(N)(=O)=O)cc3)ncnc2c1 [Example 230, 4-(((7-methoxyquinazolin-4-yl)amino)methyl)benzene sulfonamide] | < 0.1 µM | 71.2 | < 0.1 µM |
| COc1cc2nccc(Oc3ccc(NS(N)(=O)=O)cc3F)c2cc1OC [Example 201, N-(4-((6,7-dimethoxyquinolin-4-yl)oxy)-3-fluorophenyl)sulfamide] | < 0.1 µM | > 19.9 | 0.1 to 1 µM |
| COc1cc2nccc(N3CCC(CN(C4CC4)S(N)(=O)=O)CC3)c2cc1OC [Example 212, N-cyclopropyl-N-((1-(6,7-dimethoxyquinolin-4-yl)piperidin-4-yl)methyl)sulfamide] | < 0.1 µM | > 46.1 | > 1 µM |
| COc1cc2nccc(-c3ccc4c(c3)CN(S(N)(=O)=O)CC4)c2cc1OC [Example 148, 7-(6,7-dimethoxyquinolin-4-yl)-3,4-dihydroisoquinoline-2(1H)-sulfonamide] | < 0.1 µM | 10.1 | < 0.1 µM |
| COc1cc2ncc(C(N)=O)c(N3CCC(CCNS(N)(=O)=O)CC3)c2cc1OC [Example 19, 6,7-dimethoxy-4-(4-(2-(sulfamoylamino)ethyl)piperidin-1-yl)quinoline-3-carboxamide] | < 0.1 µM | >95.8 | > 1 µM |
| COc1cc2ncnc(NC(C)c3ccc(NS(N)(=O)=O)cc3)c2cc1F (stereo not drawn) [Example 236, N-(4-(1-((6-fluoro-7-methoxyquinazolin-4-yl)amino)ethyl)phenyl)sulfamide] | < 0.1 µM | 109 | 0.1 to 1 µM |
| COc1ccc2c(Oc3ccc(NS(N)(=O)=O)c(C#N)c3)ccnc2c1 [Example 315, N-(2-cyano-4-((7-methoxyquinolin-4-yl)oxy)phenyl)sulfamide] | < 0.1 µM | >49.7 | > 1 µM |
| NS(=O)(=O)N1CCC2(CCN(c3ncnc4ccccc34)CC2)C1 [Example 158, 8-(quinazolin-4-yl)-2,8-diazaspiro [4.5] decane-2-sulfonamide] | < 0.1 µM | 16.3 | 0.1 to 1 µM |
| COc1cc2ncc(C#N)c(Nc3ccc(NS(N)(=O)=O)cc3)c2cc1OC [Example 175, N-(4-((3-cyano-6,7-dimethoxyquinolin-4-yl)amino)phenyl)sulfamide] | < 0.1 µM | >63.3 | > 1 µM |
| COc1ccc2ncc(C#N)c(-c3ccc(CN(C4CC4)S(N)(=O)=O)cc3)c2c1 [Example 294, N-(4-(3-cyano-6-methoxyquinolin-4-yl)benzyl)-N-cyclopropylsulfamide] | 0.1 to 1 µM | >119 | > 1 µM |
| COc1cc2c(N3CCC4(CC3)CCN(S(N)(=O)=O)C4)c(C#N)cnc2cn1 [Example 256, 8-(3-cyano-6-methoxy-1,7-naphthyridin-4-yl)-2,8-diazaspiro [4.5] decane-2-sulfonamide] | < 0.1 µM | >118 | > 1 µM |
| COc1ccc2ncnc(-c3ccc(CNS(N)(=O)=O)cc3)c2c1 [Example 264, N-(4-(6-methoxyquinazolin-4-yl)benzyl)sulfamide] | 0.1 to 1 µM | >28.0 | > 1 µM |
| COc1ccc2ncnc(N3CCC(CCNS(N)(=O)=O)CC3)c2c1 [Example 199, N-(2-(1-(6-methoxyquinazolin-4-yl)piperidin-4-yl)ethyl)sulfamide] | < 0.1 µM | 33.6 | 0.1 to 1 µM |

Second part, the compound after the results:

| Ki (ENPP1 [1]) | Substrate Selectivity: Ki_AMP-pNP/Ki_cGAMP (ENPP1 [2]) | Ki (ENPP1 [3]) | Structure (SMILES) |
| --- | --- | --- | --- |
| < 0.1 µM | 51 | 0.1 to 1 µM | COc1cc2nccc(Oc3ccc(S(N)(=O)=O)cc3)c2cn1 [Example 393, 4-((7-methoxy-1,6-naphthyridin-4-yl)oxy)benzenesulfonamide] |
| < 0.1 µM | 25 | < 0.1 µM | COc1ccc2c(N3CCc4cc(NS(N)(=O)=O)cc(F)c43)ccnc2c1 [Example 375, N-(7-fluoro-1-(7-methoxyquinolin-4-yl)indolin-5-yl)sulfamide] |
| < 0.1 µM | >38 | 0.1 to 1 µM | COc1ccc2c(-c3ccc(CNS(N)(=O)=O)cc3)c(F)cnc2c1 [Example 381, N-(4-(7-methoxy-3-Fluoro-quinolin-4-yl)benzyl) Sulfamide] |
| < 0.1 µM | >7 | 0.1 to 1 µM | COc1ccc2c(-c3ccc(CN(C)S(N)(=O)=O)cc3)ccnc2c1 [Example 368, N-(4-(7-methoxyquinolin-4-yl)benzyl)-N-methyl sulfamide] |
| < 0.1 µM | 40 | 0.1 to 1 µM | COc1ccc2c(Oc3ccc(S(N)(=O)=O)cc3)ncnc2c1 [Example 356, 4-((7-methoxyquinazolin-4-yl)oxy)benzene sulfonamide] |
| 0.1 to 1 µM | >227 | > 1 µM | COc1ccc2c(-c3ccc(CCNS(N)(=O)=O)cc3)ccnc2c1 [Example 403, N-(4-(7-methoxyquinolin-4-yl)phenethyl)sulfamide] |
| < 0.1 µM | >44 | > 1 µM | COc1ccc2c(-n3cnc(CNS(N)(=O)=O)c3)ccnc2c1 [Example 385, N-((1-(7-methoxyquinolin-4-yl)-1H-imidazol-4-yl)methyl)sulfamide] |
| < 0.1 µM | >103 | 0.1 to 1 µM | COc1ccc2c(Oc3ccc4c(c3)CCN4S(N)(=O)=O)ccnc2c1 [Example 404, 5-((7-methoxyquinolin-4-yl)oxy)indoline-1-sulfonamide] |
| < 0.1 µM | >533 | > 1 µM | COc1cc2ncc(C#N)c(-c3ccc4c(c3)CN(S(N)(=O)=O)CC4)c2cc1F [Example 316, 7-(3-cyano-6-fluoro-7-methoxyquinolin-4-yl)-3,4-dihydroisoquinoline-2(1H)-sulfonamide] |
| 0.1 to 1 µM | >89 | > 1 µM | COc1ccc2c(Oc3ccc(S(N)(=O)=O)cc3)c(C(F)(F)F)cnc2c1 [Example 377, 4-((7-methoxy-3-(trifluoromethyl)quinolin-4-yl)oxy) benzenesulfonamide] |
